How the values were obtained:
Type in all cases: cell-based
[1] = test system: Pseudomonas aeruginosa expressing AmpC (CL5701); assay: Antibiotic activity: growth inhibitory concentration (OD600), P. aeruginosa CL5701; conditions: concentration inhibiting 95% of bacterial growth, with BLi Relebactam 4 μg/mL, 22 hours
Procedure: (§1) Biological Assays Antibiotic Activity: Determination of Growth Inhibitory Concentration The concentrations of compounds required to inhibit the growth of various strains of bacteria were determined in an assay that assessed bacterial growth by measuring optical density at 600 nm (OD600). The bacterial strains tested included the clinical strains Escherichia coli expressing NDM-1 (CLB30016), Klebsiella pneumoniae expressing KPC-1 (CL6569), Acinetobacter baumannii expressing TEM-1, AmpC, and Oxa-24/40 (CL6188) and Pseudomonas aeruginosa expressing AmpC (CL5701). All compounds were tested in the presence of a β lactamase inhibitor (BLi, Relebactam) in 384-well microplates.
(§2) The clinical strains were stored as frozen single use stocks, thawed and diluted into 1.1× cation-adjusted Mueller-Hinton II broth to achieve approximately 2×10^5 CFU/mL. Test compounds were dissolved in DMSO and diluted 1:50 in the assay, resulting in a final concentration range of 100 μM to 0.098 μM. On the day of the assay, 1 μL of test compound was added to the plate followed by 4 μL of 50 μg/mL BLi in MOPS buffer and 45 μL of diluted bacteria. Plates were centrifuged at 1000 rpm for 30 seconds, shaken at approximately 800 rpm for 1 minute, and incubated at 35 t 2° C. for 22 hours. The concentration of BLi used in the assay was 4 μg/mL. At the end of the incubation, absorbance at 600 nm was determined using a spectrophotometer. Inhibition was quantitated by identifying the lowest concentration of test compound that was required to inhibit 95% of the growth of the bacteria.

[2] = test system: Escherichia coli expressing NDM-1 (CLB30016); assay: Antibiotic activity: growth inhibitory concentration (OD600), E. coli CLB30016; conditions: concentration inhibiting 95% of bacterial growth, with BLi Relebactam 4 μg/mL, 22 hours
Procedure: as §1, §2

[3] = test system: Acinetobacter baumannii expressing TEM-1, AmpC, and Oxa-24/40 (CL6188); conditions: concentration inhibiting 95% of bacterial growth; with BLi Relebactam 4 μg/mL; 22 hours; OD600
Procedure: as §1, §2

Structure (SMILES)	PA_CL5701 MITC95 [1]	EC_CLB30016 MITC95 [2]	AB_CL6188 MITC95 [3]
CC1(C)[C@H](NC(=O)/C(=N\O[C@](C)(C(=O)O)[C@H]2CCc3cc(C(=N)N[C@H]4C[C@@H](N)C4)ccc3O2)c2csc(N)n2)C(=O)N1OS(=O)(=O)O [Compound 7, (S)-2-((R)-6-(N-((1 s,3S)-3-aminocyclobutyl)carbamimidoyl)chroman-2-yl)-2-((((Z)-1-(2-aminothiazol-4-yl)-2-(((S)-2,2-dimethyl-4-oxo-1-(sulfooxy)azetidin-3-yl)amino)-2-oxoethylidene)amino)oxy)propanoic acid]	1.563 µM	–	–
CC1(C)[C@H](NC(=O)/C(=N\O[C@](C)(C(=O)O)[C@H]2CCc3cc(C(=N)N[C@H]4C[C@]5(CCNC5)C4)ccc3O2)c2csc(N)n2)C(=O)N1OS(=O)(=O)O [Compound 22, (S)-2-((R)-6-(N-((2r,4S)-6-azaspiro[3.4]octan-2-yl)carbamimidoyl)chroman-2-yl)-2-((((Z)-1-(2-aminothiazol-4-yl)-2-(((S)-2,2-dimethyl-4-oxo-1-(sulfooxy)azetidin-3-yl)amino)-2-oxoethylidene)amino)oxy)propanoic acid]	1.563 µM	–	–
CC1(C)[C@H](NC(=O)/C(=N\O[C@](C)(C(=O)O)[C@H]2CCc3cc(C(=N)N[C@H]4C[C@@]5(CCNC5)C4)ccc3O2)c2csc(N)n2)C(=O)N1OS(=O)(=O)O [Compound 23, (S)-2-((R)-6-(N-((2s,4R)-6-azaspiro[3.4]octan-2-yl)carbamimidoyl)chroman-2-yl)-2-((((Z)-1-(2-aminothiazol-4-yl)-2-(((S)-2,2-dimethyl-4-oxo-1-(sulfooxy)azetidin-3-yl)amino)-2-oxoethylidene)amino)oxy)propanoic acid]	3.125 µM	6.25 µM	6.25 µM
CC1(C)[C@H](NC(=O)/C(=N\O[C@](C)(C(=O)O)[C@H]2CCc3cc(C(=N)NC4CC(N)(C[C@H](O)CO)C4)ccc3O2)c2csc(N)n2)C(=O)N1OS(=O)(=O)O (stereo partly drawn) [Compound 94, (S)-2-((R)-6-(N-((1S,3R)-3-amino-3-((S)-2,3-dihydroxypropyl)cyclobutyl)carbamimidoyl)chroman-2-yl)-2-((((Z)-1-(2-aminothiazol-4-yl)-2-(((S)-2,2-dimethyl-4-oxo-1-(sulfooxy)azetidin-3-yl)amino)-2-oxoethylidene)amino)oxy)propanoic acid]	1.563 µM	–	6.25 µM
CC1(C)[C@H](NC(=O)/C(=N\O[C@](C)(C(=O)O)[C@H]2CCc3cc(C(=N)N[C@H]4C[C@@](N)(C[C@@H](O)CO)C4)ccc3O2)c2csc(N)n2)C(=O)N1OS(=O)(=O)O [Compound 95, (S)-2-((R)-6-(N-((1R,3R)-3-amino-3-((R)-2,3-dihydroxypropyl)cyclobutyl)carbamimidoyl)chroman-2-yl)-2-((((Z)-1-(2-aminothiazol-4-yl)-2-(((S)-2,2-dimethyl-4-oxo-1-(sulfooxy)azetidin-3-yl)amino)-2-oxoethylidene)amino)oxy)propanoic acid]	1.563 µM	6.25 µM	–
CC1(C)[C@H](NC(=O)/C(=N\O[C@](C)(C(=O)O)[C@H]2CCc3cc(C(=N)N[C@H]4C[C@](N)(CC(O)CO)C4)ccc3O2)c2csc(N)n2)C(=O)N1OS(=O)(=O)O (stereo partly drawn) [Compound 96, (S)-2-((R)-6-(N-((1R,3S)-3-amino-3-((S)-2,3-dihydroxypropyl)cyclobutyl)-carbamimidoyl)chroman-2-yl)-2-((((Z)-1-(2-aminothiazol-4-yl)-2-(((S)-2,2-dimethyl-4-oxo-1-(sulfooxy)azetidin-3-yl)amino)-2-oxoethylidene)amino)oxy)propanoic acid]	1.563 µM	–	6.25 µM
COCc1c(C(=N)N[C@H]2C[C@@H](N)C2)ccc2c1CC[C@H]([C@](C)(O/N=C(\C(=O)N[C@@H]1C(=O)N(OS(=O)(=O)O)C1(C)C)c1csc(N)n1)C(=O)O)O2 [Compound 124, (S)-2-((R)-6-(N-((1s,3S)-3-aminocyclobutyl)carbamimidoyl)-5-(methoxymethyl)chroman-2-yl)-2-((((Z)-1-(2-aminothiazol-4-yl)-2-(((S)-2,2-dimethyl-4-oxo-1-(sulfooxy)azetidin-3-yl)amino)-2-oxoethylidene)amino)oxy)propanoic acid]	3.125 µM	50 µM	–
COC[C@]1(NC(=N)c2ccc3c(c2)CC[C@H]([C@](C)(O/N=C(\C(=O)N[C@@H]2C(=O)N(OS(=O)(=O)O)C2(C)C)c2csc(N)n2)C(=O)O)O3)CC[C@@H](N)CC1 [Compound 126, (S)-2-((R)-6-(N-((1s,4S)-4-amino-1-(methoxymethyl)cyclohexyl)carbamimidoyl)chroman-2-yl)-2-((((Z)-1-(2-aminothiazol-4-yl)-2-(((S)-2,2-dimethyl-4-oxo-1-(sulfooxy)azetidin-3-yl)amino)-2-oxoethylidene)amino)oxy)propanoic acid]	6.25 µM	25 µM	–
COC[C@]1(NC(=N)c2ccc3c(c2)CC[C@H]([C@](C)(O/N=C(\C(=O)N[C@@H]2C(=O)N(OS(=O)(=O)O)C2(C)C)c2csc(N)n2)C(=O)O)O3)CC[C@H](N)CC1 [Compound 127, (S)-2-((R)-6-(N-((1r,4R)-4-amino-1-(methoxymethyl)cyclohexyl)carbamimidoyl)chroman-2-yl)-2-((((Z)-1-(2-aminothiazol-4-yl)-2-(((S)-2,2-dimethyl-4-oxo-1-(sulfooxy)azetidin-3-yl)amino)-2-oxoethylidene)amino)oxy)propanoic acid]	3.125 µM	–	–
